{"source": "patent US11293024B2", "about": "“Antisense antibacterial compounds and methods” (priority 2014, dated 2022)", "format_in_all_cases": "cell-based, Pseudomonas aeruginosa", "key": {"[1]": {"test_system": "P. aeruginosa PAO1", "assay": "MIC of Ampicillin as a function of AmpR PPMO and PMBN concentration", "source_text": "An AmpR PPMO combined with PMBN restores activity of Ampicillin in P. aeruginosa PAO1.\nThe ability to use PPMOs as adjunctive therapeutics to restore antibiotic sensitivity to existing drugs could be an intriguing way to explore treatment of multidrug-resistant pathogens that are increasingly being found in chronically infected patients. Frequently encountered resistance genes (β-lactamases, efflux pumps) were targeted. […] An exemplary PPMO, as set forth in Table 5 and illustrated below, was designed to target AmpR in P. aeruginosa, a global transcriptional regulator that regulates β-lactamases such as AmpC. […] Testing the AmpR PPMO in animal models would be a reasonable alternative approach to thinking of antisense as adjuvant therapy with traditional antibiotics."}, "[2]": {"test_system": "P. aeruginosa PAO1 biofilm", "assay": "Biofilm prevention in MBEC plate (crystal violet)", "details": "5 μM PPMO, 2 μg/mL PMBN, MHII, 20 hours; one-way ANOVA p<0.0001", "description": "P. aeruginosa PAO1 (5×10^5 cfu/mL) was grown in MHII media in an MBEC plate for 20 hours either alone or in the presence of 5 μM of the indicated PPMOs, PMBN alone, (RXR)4, or a scrambled PPMO. All conditions contained 2 μg/mL of PMBN unless indicated otherwise. Pegs were processed for crystal violet or visualized by microscopy at 20 hours. […] FIGS. 6B-6D: Spinning Disk confocal microscopy images of 20 hour biofilm treated with (FIG. 6B) No PPMO, (FIG. 6C) 5 μM Scr PPMO #41, (FIG. 6D) 5 μM RpsJ PPMO #14. PAO1 GFP is shown in green and biofilm is shown in red. The biofilm is stained with 200 μg/mL of Concanavalin A, Alexafluor 647 conjugate.\nPseudomonas aeruginosa Biofilm Prevention in MBEC Plate Protocol\n• 1. 10 mL of MH is inoculated with a single colony and incubated at 37° C. and ˜250 rpm for about 5 hours. • 2. The sample is centrifuged for 10 minutes at ˜4000 rpm at 4° C., the supernatant is decanted and the pellet resuspended in 10 mL of 150 mM NaCl or PBS. This step is repeated to wash the pellet 3 times. • 3. The sample is resuspended in 10 mL 150 mM NaCl or PBS. • 4. The OD600 of the sample is taken and cfu/mL is calculated. (OD600 usually between 0.65-0.80). • 5. A Bacterial Working Solution (BWS) is made by inoculating 10 mL of MH to 5×10^5 cfu/mL final concentration. • 6. 2 μL/mL of 1 mg/mL stock PMBN is added to the BWS and vortexed 3 times. • 7. 1 mL of BWS is pipetted into each separate Eppendorf tube for each condition that is tested. • 8. An appropriate amount of PPMO is added to each Eppendorf tube and vortexed 3 times. • 9. Outside wells are filled with fresh MH, NaCl, or PBS to keep the outer pegs from drying out. • 10. One column of the MBEC plate is filled with 150 μL per well from each Eppendorf tube (one condition per column). • 11. Pegs are placed into the MBEC plate and the edges covered with a breathable membrane. • 12. The MBEC plate is incubated for 18-20 hours at 37° C. and 110 rpm. Day 2:\n1. […] The final OD570 of the 10× dilution of solution should be approximately 0.500 absorbance. […]\n2. OD reading: The OD570 for the 96-well plate from step 1e is determined. […]"}, "[3]": {"test_system": "P. aeruginosa strains that are multidrug resistant (strain T63547)", "assay": "MIC in multidrug resistant P. aeruginosa strains", "details": "strain T63547 (CF sputum; resistant to extended-spectrum penicillins, cephalosporins, quinolones, carbapenems)", "description": "In addition, MIC values of 8 μM or less in P. aeruginosa strains that are multidrug resistant have been achieved. For example, strain T63547 was isolated from the sputum of a CF patient and was resistant to extended-spectrum penicillins, cephalosporins, quinolones and carbapenems. The RpsJ PPMOs and the RpmB PPMO had MIC values of 4 μM. PPMOs also retained activity in mucoid strains of P. aeruginosa (such as strain H27925; CF sputum sample). This is a critically important finding, as mucoid Pseudomonas poses significant treatment challenges."}, "[4]": {"test_system": "panel of P. aeruginosa clinical isolates", "assay": "MIC of PPMOs with sub-inhibitory concentrations of Colistin (polymyxin E)", "details": "Colistin alone at either 1 or 0.5 μg/ml (depending on the strain)", "description": "MICs are indicated by color and numerical value as in FIG. 1. All MICs were performed in the presence of 1 μg/mL of Colistin unless otherwise noted (*Strains with an asterisk were tested with 0.5 μg/mL of Colistin).\nThe overnight culture is plated to determine CFU/ml of starting inoculum. From the overnight culture 4 μl is taken into 10 ml of fresh medium and mixed well to obtain a bacterial working suspension. From the 10 ml, 50 μl is taken into 450 μl of saline. Serial dilutions of 10^−2, 10^−3 and 10^−4 are plated on BA. If Polymyxin B Nonapeptide (PMBN) is to be added, 4 μl/ml of PMBN is added from a stock of 1 mg/ml (in water) to the bacterial suspension for a 4 μg/ml final PMBN concentration.\nFor every PPMO to be tested, the following is done: 6.8 μl of a 1 mM PPMO stock is added to 413.2 μl of bacterial working suspension and vortexed. 200 μl is placed in the first row (A) of a 96-well plate in duplicate. 100 μl of bacterial working suspension is added to rows B thru F. Row A is mixed well by pipetting 10 times. Then 100 μl from each well of row A is added to the 100 μl of bacterial working suspension in each well of row B and mixed well 10 times. Serial dilutions are continued in the same manner through to row F. Finally, 100 μl in the last row is removed and discarded. […]\nThe plate is read in a plate reader to measure OD600. […]"}}, "note": "{(RXR)4XB} = cell-penetrating peptide (RXR)4XB; {Ac} = acetyl (COCH3) cap", "data": [{"molecule": "CC1(C)S[C@@H]2[C@H](NC(=O)[C@H](N)c3ccccc3)C(=O)N2[C@H]1C(=O)O", "note": "[Ampicillin, ampicillin, reference compound]", "values": [{"measurement": "MIC", "setting": "[1]; Pseudomonas aeruginosa, PAO1, in the absence of PPMO", "value": 512, "unit": "µg/mL"}]}, {"molecule": "PPMO #2: LpxC PMO GTTGTTTGATC, 5′ TEG, 3′ (RXR)4XB CPP", "values": [{"measurement": "prevention of biofilm (crystal violet)", "setting": "[2]", "value": "statistically significant prevention of biofilm"}]}, {"molecule": "PPMO #5: RpmB PMO CTCTAGACATG, 5′ TEG, 3′ (RXR)4XB CPP", "values": [{"measurement": "prevention of biofilm (crystal violet)", "setting": "[2]", "value": "statistically significant prevention of biofilm"}, {"measurement": "MIC", "setting": "[3]", "value": 4, "unit": "µM"}]}, {"molecule": "PPMO #28: ampR PMO GTCGAACCAAT, 5′ (RXR)4XB CPP, 3′ COCH3 (all phosphorodiamidate morpholino (PMO), 5' {(RXR)4XB}, 3' {Ac})", "values": [{"measurement": "MIC of Ampicillin", "setting": "[1]; in the presence of 32 μM AmpR PPMO and 4 μg/ml PMBN", "value": 4, "unit": "µg/mL"}]}, {"molecule": "polymyxin E [Colistin]", "values": [{"measurement": "growth inhibition by Colistin alone", "setting": "[4]", "value": "did not inhibit growth"}]}]}
